Earlier results, collected in PMC3480965 (Molecular pharmaceutics, 2012).

What was measured:
melanoma = conditions: in vivo, 2 h
[1] = biological target: melanocortin-1 (MC1) receptor (Mus musculus, UniProt Q01727); conditions: read-out: MC1 receptor binding affinity (IC50); B16/F1 melanoma cells
Chain of melanocortin-1 (MC1) receptor (Q01727 whole entry): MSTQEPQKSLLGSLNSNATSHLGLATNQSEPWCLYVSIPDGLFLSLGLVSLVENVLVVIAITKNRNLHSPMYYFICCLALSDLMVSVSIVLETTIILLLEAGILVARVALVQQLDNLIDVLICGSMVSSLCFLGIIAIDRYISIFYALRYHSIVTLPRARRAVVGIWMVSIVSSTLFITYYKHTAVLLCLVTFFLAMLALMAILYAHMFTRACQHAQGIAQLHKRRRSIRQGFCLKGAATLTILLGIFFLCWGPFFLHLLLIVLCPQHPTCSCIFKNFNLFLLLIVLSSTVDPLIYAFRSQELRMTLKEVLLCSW

Liver uptake (melanoma) [% ID/g]	Melanoma uptake (melanoma) [% ID/g]	IC50 [1] [nM]	Substance
11.0	4.63 ± 0.45		Ac-Nle-Asp-His-D-Phe-Arg-Trp-Gly-Lys(^64Cu-DOTA)-NH2 [^64Cu-DOTA-NAPamide]
		2.1	1,4,7,10-tetraazacyclononane-1,4,7,10-tetraacetic acid-GGNle-CycMSHhex (GGXDHFRWK; X3 = norleucine (Nle); D-Phe6; lactam bridge between Asp4 and Lys9 side chains (cyclic); C-terminal amide; 64Cu-labelled for biod) [DOTA-GGNle-CycMSHhex]
7.3	8.80 ± 1.70		^64Cu-DOTA-Re-[Cys[3],[4],[10], D-Phe^7, Arg^11]a-MSH3–13 [^64Cu-DOTA-ReCCMSH(Arg^11)]
